Assay results: US20210260051A1, “COMBINATION OF EZH2 INHIBITOR AND CHECKPOINT THERAPY FOR THE TREATMENT OF CANCER” (Board of Regents, The University of Texas System, priority 2018, published 2021)

Experiments:
[1] = tested on: murine inducible regulatory T cell (iTreg) differentiation; assay: in vitro differentiation of murine naïve CD4 T cells into inducible regulatory T cells with EZH2 inhibitors; format: cell-based, mouse; conditions: compared with the other EZH2 inhibitors; FIG. 4A
Description: FIGS. 4A-B: (FIG. 4A) Percentages of inducible regulatory T cells following in vitro differentiation of murine naïve CD4 T cells into regulatory T cells in the presence and absence of various EZH2 inhibitors. (FIG. 4B) Representative counts of viable cells in culture following treatment with EZH2 inhibitors. Data is representative of three independent experiments. One-way ANOVA was used to determine significance between the groups. **p<0.01.
To investigate whether the data observed in the FoxP3^creEZH2^fl/fl mouse model could be recapitulated by pharmacological inhibition of EZH2 in T cells, the effect of different EZH2 inhibitors on regulatory T cell differentiation was compared. CPI-1205 was compared with commercially available EZH2 inhibitors.
In vitro T cell assays. Human peripheral regulatory T cells were isolated from peripheral blood mononuclear cells by enriching for CD4^+CD127^low CD25^+ cells using the EasySep Human Regulatory T Cell Isolation Kit (STEMCELL Technologies, Cambridge, Mass.). For mouse in vitro regulatory T cell differentiation, CD4^+CD25^low CD44^low CD62L^hinaïve splenic T cells were isolated from C57BL/6 mice using BD FACSAria (BD Biosciences, San Jose, Calif.). The cells were then differentiated in the presence of recombinant murine IL-2 (R&D, 402-ML), tumor growth factor-β (TGF-β, R&D 7666-MB), CPI-1205 or dimethyl sulfoxide (DMSO) and cultured for 6 days.

MB49 tumor = assay: MB49 tumor-bearing Rag1-/- mice; format: in vivo, mouse; conditions: compared with the untreated group
Description: FIGS. 3A-3F: Blocking expression of EZH2 mediated by anti-CTLA-4 using CPI-1205 increases the effectiveness of anti-CTLA-4 therapy. Tumor growth (FIG. 3A), survival (FIG. 3B) and percentages of intra-tumoral CD4^+CD25^+FoxP3^+ regulatory T cells, CD4^+ICOS^+T-bet^+ and CD8^+IFNγ^+ cells (FIG. 3C) in MB49 tumor-bearing mice treated with vehicle, anti CTLA-4, CPI-1205, or the combination. Tumor growth (FIG. 3D) and percentages of CD4^+IFNγ^+ cells and CD8^+TNFα^+ cells in the lymph nodes (LN) (FIG. 3E) of MB49 tumor-bearing Ezh2^fl/+ and FoxP3^CreEzh2^fl/fl mice treated with anti-CTLA-4 on days 7 and 9. (FIG. 3F) Tumor growth and survival of MB49 tumor-bearing Rag-1^−/− mice treated with vehicle or CPI-1205. Data are representative of three independent experiments (n=10 in each group; one-way ANOVA was used to determine significance between the groups. **p<0.01).
To determine whether the anti-tumoral effect of combination therapy is exclusively due to effector immune response or is an additive effect of CPI-1205 on tumor cells, Rag 1^−/− C57BL/6 mice were used, which have no mature lymphocyte population. MB49 tumor-bearing Ragl^−/− mice were treated with CPI-1205.
Mice. C57BL/6 (5-7 weeks) mice were purchased from the National Cancer Institute (Frederick, Md.). […]

With COc1cc(C)[nH]c(=O)c1CNC(=O)c1c(C)n([C@H](C)C2CCN(CC(F)(F)F)CC2)c2ccccc12 [CPI-1205, N-[(4-methoxy-6-methyl-2-oxo-1H-pyridin-3-yl)methyl]-2-methyl-1-[(1R)-1-[1-(2,2,2-trifluoroethyl)piperidin-4-yl]ethyl]indole-3-carboxamide] the “suppression of murine inducible regulatory T cell (iTreg) differentiation” value [1] was “most striking effect”, the survival (MB49 tumor) was “No significant difference” and the tumor growth (MB49 tumor) was “No significant difference”.
